The values below come from patent US9546157B2, “Asymmetric piperidinyl-substituted ureas as medicines” (Helsinn Healthcare SA, priority 2014, dated 2017).

“Also recorded” adds a separate entry of the source.

The test system of the data set is female Sprague-Dawley rats. The data set can be described thus: Binge eating model in non-estrous female rats (food restriction + stress, HPF intake). To be noted: for 2-h chow food intake during binge eating test / 24-h chow food intake after binge eating test: acute administration (compounds 3 and 30 mg/kg, Topiramate 60 mg/kg). The class given is in vivo, rat. How it is done: In this Example, the therapeutic potential of compounds were tested for their ability to inhibit binge eating. The animal model used was developed to explore the combination of food restriction and stress. […] Considering the reliability and the robustness of this model, it was adopted to test the inventive compounds.
A total of N=117, 52-day-old female Sprague-Dawley rats (175-200 g) were used. Rats were acclimated in individual cages with metallic walls; the floor and the front wall made of metallic grid. The dimensions of the cage floor being 30 cm×30 cm; the cage is 30 cm high. A front door (30 cm×20 cm) made of metallic grid was positioned in the anterior wall of the cage to gain access to the inside of the cage; the remaining part of the front wall was equipped with a drinking burette.
Rats were kept in a room at constant temperature (20-22° C.) and humidity (45-55%) under a 12-h light/dark cycle (lights on at 08:00 am) with ad lib chow and water. All procedures were conducted in adherence to the European Community Directive for Care and Use of Laboratory Animals.
Rats were offered food pellets, 4RF18, Mucedola, Settimo Milanese, Italy (2.6 kcal/g). The Highly Palatable Food (HPF) was prepared by mixing:
Rats were exposed to 3 consecutive 8-day cycles followed by the final test on day 25:
a) the control group (NR+NS) had chow ad libitum for 4 days, on days 5-6 it received chow+HPF for 2 h; on days 7-8 it had chow ad libitum; on day 25 it was not exposed to stress;
b) the second group (R+S) had chow restricted to 66% of the normal intake for 4 days, was offered chow and HPF (2 h) on days 5-6 and only chow on days 7-8; on day 25 it […].
Body weights and food intake were recorded daily. Food intake is expressed as mean kilocalories per kilogram ingested±SEM.
Therefore, immediately after the test on day 25, vaginal smears were collected and analyzed under microscope to assess the ovarian phase, and data from rats in the estrous phase were not included in the statistical analysis. Vaginal smears were analyzed by an experienced experimenter blind to treatment conditions.
For 15 min, the container (China coffee cup) containing HPF is placed outside the cage; the container handle is hooked to the top wire wall of the cage in the hollow part where food pellets are usually offered. In these conditions, the animal is able to see the cup in which it received HPF on days 5, 6, 13, and 14 of the first two cycles, is able to see in part the HPF itself, and is able to smell its odour. In this 15-min period, the rat engages in repeated movements of the forepaws, head, and trunk aimed at obtaining the HPF, but it is not able to reach it. Rats undergo the stressful procedure between 10.00 and 12.00 am. After 15 min, the cup is placed inside the cage of the rats in the stress group (R+S), so that the HPF became accessible to the rat.
100 mg of each compound (H0816, H0860, H0847 and H0900) was accurately weighed and suspended in 13.33 ml of 0.5% carboxymethyl cellulose sodium salt (CMC, Sigma-Aldrich Cat. C4888, lot 120M0216V) solution. The lower dose solution was prepared by dilution of 30 mg/ml suspension with 0.5% CMC solution. Suspensions were prepared freshly on test day. Vehicle was composed by a solution of 0.5% carboxymethyl cellulose sodium salt and was prepared by dissolving 1 g of CMC in 200 ml of distilled water. 180 mg of Topiramate was accurately weighed and suspended in 12 ml of 0.5% CMC solution. Compounds (vehicle and active principles) were administered by gavage in a volume of 4 ml/kg of body weight one hour before access to HPF.
All data are expressed as the mean±s.e.m. and each value reflects the mean number of animals per group as described in the legends. For data evaluation, the analysis of variance (ANOVA) was used followed by post-hoc (Bonferroni's) test when appropriate. Statistical significance was set at P<0.05. The Software used for the Graphs was Origin 7.0. […]

Where [1] appears, read: first test, 30 mg/kg by gavage 1 h before access to HPF, vs R+S vehicle.
[2] abbreviates: first test, 3 and 30 mg/kg by gavage.
[3] abbreviates: first test, doses of 3 and 30 mg/kg by gavage, acute administration.
Setting [4] is: second test, H0816 3, 10 and 30 mg/kg, Topiramate 60 mg/kg.

Consider `C[C@H](NC(=O)N(C)C1CCN(C)CC1)c1ccc(-c2cnccn2)c(Cl)c1Cl` [Compound H0816, (S)-3-(1-(2,3-dichloro-4-(pyrazin-2-yl)phenyl)ethyl)-1-methyl-1-(1-methylpiperidin-4-yl)urea], for which the “HPF intake (binge eating) in R+S rats, post-hoc” value (from here on “HPF intake … post-hoc”) runs as follows: under setting [1], “statistically significant (P<0.05) at 15 min time point”; (second test, 10 mg/kg by gavage 1 h before access to HPF) “statistically significant (P<0.05) at 15 min time point”; (second test, 30 mg/kg by gavage 1 h before access to HPF) “completely blocked (P<0.01) the BE episode at 15 min”. The “animals' gross behaviour during the 2-h test” value by setting is: under setting [2], “did not affect animals' gross behaviour”; (second test, 3, 10 and 30 mg/kg by gavage) “did not affect animals' gross behaviour”. In addition, the “2-h chow food intake during binge eating test” value (first test) was “did not modify 2-h chow intake”. Also, the “24-h chow food intake after binge eating test” value (shortened to “24-h chow food intake”) (first test) is reported as “did not modify 24-h chow intake”. For the same compound, the “2-h HPF intake (binge eating) in R+S rats, overall (ANOVA)” value (from here on “2-h HPF intake (binge eating)”) runs as follows: under setting [3], “reduced binge eating episodes; also recorded: significant difference; also recorded: significantly reduced BE behaviour”; (second test, doses of 3, 10 and 30 mg/kg by gavage) “significant difference; also recorded: confirmed, dose dependently, its selective inhibitory effect on BE”. Under setting [4], the 2-h chow intake result was “did not modify”. Further, under setting [4], the 24-h chow intake result is “did not modify”.
Turning to `CN1CCC(N(C)C(=O)N[C@H](c2ccc(-c3cnccn3)c(Cl)c2Cl)C(F)(F)F)CC1` [Compound H0900, (R)-3-(1-(2,3-dichloro-4-(pyrazin-2-yl)phenyl)-2,2,2-trifluoroethyl)-1-methyl-1-(1-methylpiperidin-4-yl)urea], the “HPF intake … post-hoc” value under setting [1] was “statistically significant (P<0.01) at all time points”. The “animals' gross behaviour during the 2-h test” value under setting [2] was “did not affect animals' gross behaviour”. Moreover, for the setting “first test”, the “2-h chow food intake during binge eating test” value is reported as “did not modify 2-h chow intake” and the “24-h chow food intake” value is listed as “did not modify 24-h chow intake”. Also, under setting [3], the “2-h HPF intake (binge eating)” value was “reduced binge eating episodes; also recorded: significant difference; also recorded: significantly reduced BE behaviour”.
As for `C[C@H](NC(=O)N(C)C1CCN(C)CC1)c1ccc(-c2cncc(F)n2)c(Cl)c1Cl` [Compound H0847, (S)-3-(1-(2,3-dichloro-4-(6-fluoropyrazin-2-yl)phenyl)ethyl)-1-methyl-1-(1-methylpiperidin-4-yl)urea], where the note is “first test, 3 mg/kg by gavage 1 h before access to HPF, vs R+S vehicle”, the “HPF intake … post-hoc” value was “statistically significant at 15, 30 and 60 min after HPF access”. Under setting [1], the “HPF intake … post-hoc” value is given as “significantly (P<0.01) reduced HPF intake at all time points”. Further, the “animals' gross behaviour during the 2-h test” value under setting [2] was “mild sedation”. For the setting “first test”, the “2-h chow food intake during binge eating test” value is on record as “significantly increased 2-h chow food intake” and the “24-h chow food intake” value was “significantly increased 24-h chow food intake”. The “2-h HPF intake (binge eating)” value under setting [3] was “reduced binge eating episodes; also recorded: significant difference; also recorded: significantly reduced BE behaviour”.
As for `CC[C@H](NC(=O)N(C)C1CCN(C)CC1)c1ccc(-c2cnccn2)c(Cl)c1Cl` [Compound H0860, (S)-3-(1-(2,3-dichloro-4-(pyrazin-2-yl)phenyl)propyl)-1-methyl-1-(1-methylpiperidin-4-yl)urea], under “first test”, the “2-h chow food intake during binge eating test” value is “significantly increased 2-h chow food intake” and the “24-h chow food intake” value is given as “significantly increased 24-h chow food intake”. Moreover, under setting [3], the “2-h HPF intake (binge eating)” value is listed as “not statistically significant; also recorded: did not significantly reduce HPF intake; also recorded: did not affect HPF intake”.
